As usually defined, the Ki is a dissociation constant, usually derived from enzyme kinetics or from competition with a known ligand.

Experimental findings from patent US8957049B2, “Inhibitors of fatty acid amide hydrolase” (Infinity Pharmaceuticals, Inc., priority 2008, dated 2015) are described below.

A value given as a limit tells only on which side of the number the result lay.

In the first assay the target is T1, human FAAH (Homo sapiens, UniProt O00519).
T1 construct: host or cells: COS-7 cells, transient transfection (FuGENE 6); 13,000 g membrane fraction solubilised in 1% Triton X-100
T1 sequence (O00519 1-579): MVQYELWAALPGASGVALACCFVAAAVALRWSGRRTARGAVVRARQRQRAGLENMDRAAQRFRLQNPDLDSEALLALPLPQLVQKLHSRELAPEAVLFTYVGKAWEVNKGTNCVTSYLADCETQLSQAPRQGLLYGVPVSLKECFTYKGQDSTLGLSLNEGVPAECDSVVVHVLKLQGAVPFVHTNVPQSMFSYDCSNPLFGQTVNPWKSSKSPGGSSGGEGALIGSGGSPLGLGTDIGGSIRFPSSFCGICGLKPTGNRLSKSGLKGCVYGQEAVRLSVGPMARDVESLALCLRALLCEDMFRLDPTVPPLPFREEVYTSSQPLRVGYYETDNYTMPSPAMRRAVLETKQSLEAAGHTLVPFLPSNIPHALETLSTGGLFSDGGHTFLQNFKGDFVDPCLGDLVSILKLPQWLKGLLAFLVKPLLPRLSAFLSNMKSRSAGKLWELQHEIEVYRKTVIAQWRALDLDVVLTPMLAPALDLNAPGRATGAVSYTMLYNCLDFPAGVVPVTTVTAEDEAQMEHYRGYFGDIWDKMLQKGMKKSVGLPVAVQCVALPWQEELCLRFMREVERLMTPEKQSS
In words: Human FAAH biochemical inhibition assay (AMC arachidonoyl amide fluorescence). The conditions noted are these: Table A, read-out: Activity (Ki) of other boronic acids tested, Table A. The gist of the method: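 Human FAAH from solubilized membranes of transiently transfected COS-7 cells, 0.1 mg/mL in 50 mM Hepes pH 7.5, 1 mM EDTA, 0.2% Triton X-100, preincubated 30 min at room temperature with 3-fold serially diluted inhibitor. Hydrolysis of AMC arachidonoyl amide read by fluorescence (ex 355/em 460 nm). Data fitted to single-site competitive inhibition with Km fixed at 9 μM.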
As for `Cc1cc(B2OC(C)(C)C(C)(C)O2)cnc1N1CCN(C)CC1`, the inhibition constant Ki is more than 1000 nM. Still for that read-out and setting: then `CC(=O)NCc1ccc(B(O)O)cc1`, with more than 1000 nM; and `Cc1cc(B(O)O)cnc1N1CCOCC1`, with 100 to 1000 nM; and `NNC(=O)CCc1ccc(B(O)O)cc1`, with 100 to 1000 nM. Regarding `OB(O)c1ccc(OCCn2ccnc2)cc1`, the Ki was in the range of 100 to 1000 nM.

The assay is the same for the next values; noted with them: class given in each Example, read-out: Activity (Ki, inhibition of human FAAH).
On to `OB(O)c1ccc2nc(Oc3ccccc3)cnc2c1` [Compound 211], for which the inhibitory constant (Ki) is 10 to 100 nM. Still for that read-out and setting: then `OB(O)c1ccc(-c2cn(Cc3ccc(C(F)(F)F)cc3)nn2)cc1` [Compound 127], with 100 to 1000 nM; and `CCCc1nnc(-c2ccccc2B(O)O)s1` [Compound 266], with more than 1000 nM. Consider `OB(O)c1ccc(-c2nnc(CCCC(F)(F)F)o2)cc1` [Compound 40], for which the Ki is not above 10 nM. As for `OB(O)c1ccc(-c2cnn(-c3ccccc3)c2)cc1` [Compound 232], the Ki is not above 10 nM.

With `Cc1cccc(Cn2cc(-c3ccc(B(O)O)cc3)nn2)c1` [Compound 129], the Ki is not above 10 nM.

With `O=C1CC(c2nc3ccc(B(O)O)cc3o2)CN1c1ccccc1` (stereo not drawn) [Compound 248], the Ki fell in the range of 10 to 100 nM. The same measure, in the same setting: then `OB(O)c1ccc(C2=NOC(c3cccnc3)C2)cc1` (stereo not drawn) [Compound 165], with 10 to 100 nM; and `OB(O)c1ccc(-c2cccc3ncccc23)cc1F` [Compound 229], with 10 to 100 nM. The same measure, in the same setting: then `OB(O)c1ccc(OCCc2ccccc2)cc1COCc1ccccc1` [Compound 97], with more than 1000 nM; and `OB1c2cscc2C=NN1Cc1ccccc1` [Compound 257], with more than 1000 nM; and `OB(O)c1ccc2nc(Nc3ccccc3)ccc2c1` [Compound 206], with not above 10 nM. Turning to `O=C(Cc1c[nH]c2ccccc12)N/N=C/c1ccccc1B(O)O` [Compound 122], the Ki is more than 1000 nM. On to `CCCCCc1nnc(-c2ccccc2B(O)O)o1` [Compound 281], for which the inhibition constant Ki is more than 1000 nM.

For `O=C1CCCN1CCc1nnc(-c2ccc(B(O)O)cc2)o1` [Compound 10], the Ki lay in the range of 100 to 1000 nM. Same read-out and setting: with `OB(O)c1ccc(OCc2ccccc2)cc1/C=N/OCc1ccccc1` [Compound 115] the figure was 10 to 100 nM; with `OB(O)c1ccc(-c2nc(CCc3ccccc3)c(-c3ccccc3)s2)cc1` [Compound 8], more than 1000 nM; with `CCCCCc1nc2ccc(B(O)O)cc2o1` [Compound 245], not above 10 nM. On the same count and under the same terms, then `CCCCOc1ccc2cc(B(O)O)ccc2n1` [Compound 191], with not above 10 nM; and `OB(O)c1ccccc1-c1nnc(CCC(F)(F)F)o1` [Compound 285], with more than 1000 nM. The same measure, in the same setting: then `OB(O)c1ccc(-c2cn(Cc3ccccc3)nn2)cc1F` [Compound 137], with 10 to 100 nM; and `OB(O)c1ccc(-c2cc(-c3ccccc3)on2)cc1` [Compound 160], with not above 10 nM; and `OB(O)c1ccc(-c2nnc(Cc3ccccc3)o2)cc1` [Compound 70], with not above 10 nM. For the compound `CCCCCc1nnc(-c2cc(B(O)O)cs2)o1` [Compound 27], the inhibition constant (Ki) was not above 10 nM. Still for that read-out and setting: with `COc1ccccc1Oc1ccc2cc(B(O)O)ccc2n1` [Compound 200] the figure was not above 10 nM; with `OB(O)c1ccc(-c2cnn(Cc3ccccc3)c2)cc1F` [Compound 226], not above 10 nM. The same measure, in the same setting: then `CC(C)(C)OC(=O)NCc1nnc(-c2ccc(B(O)O)cc2)o1` [Compound 83], with 10 to 100 nM; and `OB(O)c1ccc2nc(CCc3ccccc3)oc2c1` [Compound 243], with not above 10 nM; and `OB(O)c1ccc(-c2nnc(-c3ccccc3)o2)cc1F` [Compound 79], with 10 to 100 nM. Regarding `CCCCc1nnc(-c2ccc(B(O)O)cc2)o1` [Compound 42], the Ki is not above 10 nM.

`OB(O)c1ccc(COc2ccc(B(O)O)cc2)cc1` [Compound 325]: the inhibition constant Ki was 100 to 1000 nM. Same read-out and setting: with `CCC(C)CCc1nnc(-c2ccc(B(O)O)cc2)o1` (stereo not drawn) [Compound 32] the figure was not above 10 nM; with `CCCc1nnc(-c2cc(OCCc3ccccc3)ccc2B(O)O)o1` [Compound 17], not above 10 nM. Same read-out and setting: with `OB(O)c1ccc(-c2nnc(-c3cccc4c3OCC4)o2)cc1` [Compound 46] the figure was not above 10 nM; with `OB(O)c1ccc2nc(COc3ccccc3)ccc2c1` [Compound 221], 10 to 100 nM.

Turning to `N#Cc1cccc(Oc2ccc3cc(B(O)O)ccc3n2)c1` [Compound 198], the Ki was not above 10 nM. As for `OB(O)c1ccc(-n2cc(-c3ccccc3)cn2)cc1` [Compound 231], the inhibitory constant (Ki) was not above 10 nM. Same read-out and setting: with `OB(O)c1ccc(-c2nnc(-c3ccccc3)o2)nc1` [Compound 12] the figure was 10 to 100 nM.

`OB(O)c1ccc2cc(Oc3ncccn3)ccc2c1` [Compound 208]: the inhibition constant Ki was not above 10 nM. The same measure, in the same setting: with `O=C(/C=C/c1ccccc1B(O)O)NCc1ccccc1` [Compound 112] the figure was 100 to 1000 nM; with `OB(O)c1ccc(C2CC(c3ccccc3)=NO2)cc1` (stereo not drawn) [Compound 152], not above 10 nM; with `OB(O)c1csc(-c2nnc(-c3ccccc3)o2)c1` [Compound 61], 10 to 100 nM.

For `OB(O)c1ccc(-c2nnc(-c3ccccc3)o2)c(Cl)c1` [Compound 68], the Ki is not above 10 nM. Take `[O-]/[N+](=C\c1cc(OCc2ccccc2)ccc1B(O)O)Cc1ccccc1` [Compound 106]: the inhibition constant (Ki) lay within 100 to 1000 nM. Regarding `OB(O)c1ccc(-c2cccc(-c3ccccc3)c2)cc1` [Compound 219], the inhibitory constant (Ki) was in the range of 10 to 100 nM.

`OB(O)c1cc2oc(CCc3ccccc3)nc2cc1F` [Compound 253]: the Ki was not above 10 nM. `OB(O)c1ccc(-c2cn(-c3ccccc3)nn2)cc1F` [Compound 134]: the Ki is 10 to 100 nM.

On to `OB1ON=Cc2cc(OCc3ccccc3)ccc21` [Compound 105], for which the inhibition constant (Ki) lay within 10 to 100 nM. Same read-out and setting: with `OB(O)c1ccc(-c2nnc(-c3cccc4c3OCO4)o2)cc1` [Compound 53] the figure was not above 10 nM. In the case of `CN(CCc1ccc(B(O)O)cc1)C(=O)OC(C)(C)C` [Compound 234], the inhibition constant (Ki) is not above 10 nM. On the same count and under the same terms, then `Cc1nnc(-c2cc(C(F)(F)F)ccc2B(O)O)o1` [Compound 11], with 100 to 1000 nM; and `COC(=O)NCCc1nnc(-c2ccc(B(O)O)cc2)o1` [Compound 86], with 10 to 100 nM; and `O=C(CCc1ccccc1)N1CCC(Cc2nc3ccc(B(O)O)cc3o2)CC1` [Compound 306], with not above 10 nM. The same measure, in the same setting: with `COc1cccc(-c2nnc(-c3ccc(B(O)O)cc3)o2)c1` [Compound 66] the figure was not above 10 nM; with `OB(O)c1ccccc1-c1nc2ncccc2o1` [Compound 259], more than 1000 nM. Turning to `CN(Cc1ccccc1)c1ccc2cc(B(O)O)ccc2n1` [Compound 204], the inhibition constant (Ki) is not above 10 nM.

For `Cn1cncc1-c1nnc(-c2ccc(B(O)O)cc2)o1` [Compound 54], the Ki is 10 to 100 nM.

On to `O=C(c1ccccc1)c1ccc2cc(B(O)O)ccc2n1` [Compound 319], for which the inhibition constant Ki is not above 10 nM. In the case of `OB(O)c1ccc(-c2nnc(-c3cccnc3)o2)cc1` [Compound 21], the Ki was not above 10 nM. The same measure, in the same setting: then `O=C(/C=C/c1cc(OCCc2ccccc2)ccc1B(O)O)NCc1cccnc1` [Compound 287], with more than 1000 nM.

In the case of `OB(O)c1ccc(Oc2cncc(F)c2)cc1` [Compound 297], the Ki was not above 10 nM. Still for that read-out and setting: then `CN(Cc1ccccc1)C(=O)/C=C/c1ccccc1B(O)O` [Compound 114], with 100 to 1000 nM; and `COC(=O)CCc1cc(OCCc2ccccc2)ccc1B(O)O` [Compound 102], with 10 to 100 nM.

For the compound `OB(O)c1ccc2oc(CCc3ccccc3)nc2c1` [Compound 242], the Ki is not above 10 nM. On to `OB(O)c1ccc(-c2nnc(-c3cccc4c3OCO4)s2)cc1` [Compound 50], for which the inhibitory constant (Ki) was not above 10 nM. On to `CC(C)c1cccc(-c2ccc(B(O)O)c(F)c2)c1` [Compound 289], for which the Ki was not above 10 nM. The same measure, in the same setting: then `CN(CCc1ccc(B(O)O)cc1)S(=O)(=O)c1ccccc1` [Compound 237], with not above 10 nM.
